Consider seven molecules from ChEMBL document CHEMBL1157685, “Biotransformation of isoimperatorin and imperatorin by Glomerella cingulata and beta-secretase inhibitory activity” (Bioorg Med Chem, 2010).

The source made the active and inactive calls. The calls are words filed in the database; no cut-off is given here.

Assay [1] concerns the target T1, Beta-secretase 1 (Homo sapiens, UniProt P56817). In words: Inhibition of human recombinant BACE1 after 60 mins by fluorescence assay.
The target in assay [2] is T1, Beta-secretase 1. In words: Inhibition of human recombinant BACE1 at 100 to 500 uM after 60 mins by fluorescence assay.
Assay [3] has as its target T1, Beta-secretase 1.
Description: Competitive inhibition of human recombinant BACE1 by Lineweaver-Burke plot analysis

T1 sequence (P56817 whole entry): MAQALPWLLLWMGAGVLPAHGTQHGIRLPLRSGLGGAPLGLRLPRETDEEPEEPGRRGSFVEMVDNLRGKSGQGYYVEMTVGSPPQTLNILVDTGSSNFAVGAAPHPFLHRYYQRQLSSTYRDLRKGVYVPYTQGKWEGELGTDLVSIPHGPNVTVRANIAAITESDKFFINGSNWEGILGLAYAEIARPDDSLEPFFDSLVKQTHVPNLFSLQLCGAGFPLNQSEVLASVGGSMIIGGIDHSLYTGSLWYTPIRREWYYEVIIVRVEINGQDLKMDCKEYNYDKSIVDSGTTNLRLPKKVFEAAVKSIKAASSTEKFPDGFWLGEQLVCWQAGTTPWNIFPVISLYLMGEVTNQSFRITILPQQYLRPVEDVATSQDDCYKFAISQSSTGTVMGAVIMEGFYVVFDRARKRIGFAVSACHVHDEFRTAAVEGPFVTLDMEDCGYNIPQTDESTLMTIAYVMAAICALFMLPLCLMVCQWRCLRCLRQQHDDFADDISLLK

As a reminder, the IC50 is the concentration at which inhibition is half-maximal. Regarding `CC(C)=CCOc1c2ccoc2cc2oc(=O)ccc12` [ISOIMPERATORIN], on Beta-secretase 1 [1], the IC50 came out at 244 µM and the inhibition entry is “Dose-dependent effect”.
For `CC(C)=CCOc1c(CCC(=O)O)c(O)cc2occc12`, at Beta-secretase 1 [1], the concentration for half-maximal inhibition (IC50) was 186 µM and the inhibition entry is “Dose-dependent effect”.
In the case of `O=c1ccc2cc3ccoc3c(O)c2o1`, the inhibition result at Beta-secretase 1 [2] was “inactive”. For the same molecule, at Beta-secretase 1 [1], the inhibition result is “Dose-dependent effect”.
For the molecule `COC(=O)CCc1c(OC)cc2occc2c1OCC=C(C)C`, at Beta-secretase 1 [1], the IC50 turned out to be 16.2 µM and the inhibition entry is “Dose-dependent effect”.
On to `COc1cc2occc2c(OCC=C(C)C)c1CCC(=O)O`, for which, at Beta-secretase 1 [1], the concentration for half-maximal inhibition (IC50) is 203 µM and the inhibition entry is “Dose-dependent effect”.
On Beta-secretase 1 [3], `COC(=O)CCc1c(O)cc2occc2c1OCC=C(C)C` showed a Kic of 11.3 µM. Further, at Beta-secretase 1 [1], the IC50 was determined as 30.5 µM and the inhibition entry is “Dose-dependent effect”.
`CC(C)=CCOc1c2occc2cc2ccc(=O)oc12` [PENTOSALEN]: at Beta-secretase 1 [1], the IC50 worked out at 91.8 µM and the inhibition entry is “Dose-dependent effect”.
